Test results reported in US11248003B2, “Pyrimidine derivative having effect of inhibiting cancer cell growth and pharmaceutical composition containing same” (ONCOBIX CO., LTD., priority 2017, dated 2022).
Read-outs that look alike come from different tables or passages of the source.

Columns and labels:
[1] = tested on: Ba/F3 cell line expressing EGFR L858R/T790M/C797S; assay: Inhibitory effect on cancer cell growth (MTT), Ba/F3 L858R/T790M/C797S; format: cell-based, Murine; details: read-out: L858R/T790M/C797S (IC50)
Experimental: (§1) The inhibitory effect on the growth of a C797S-expressed triple mutant Ba/F3 cancer cell line was measured for the compounds obtained in the examples above. The kinase assay and anticancer efficacy activity using a Ba/F3 stable cell line were measured by the following method:
(§2) 1. […] All constructs were retroviral vectors and finally completed viral particles for infection.
(§3) 2. Construction of Ba/F3 stable cell lines: Murine lymphoid cells undergo IL-3 dependent growth. […] Briefly, each construct was infected into Ba/F3 cell lines, and after 48 hours, IL-3 was removed with media exchange and cells were cultured. However, puromycin selection was performed for wild type EGFR.
(§4) 3. Identification of Ba/F3 stable cell lines: All stable cell lines were subjected to western blotting to confirm the expression of each construct and EGFR activity (EGFR wild type and L858R were omitted).
(§5) 5. Anticancer effect verification by MTT assay: 2×10^3 cells were seeded in a 96-well plate. After 24 hours, each of the drugs was treated in a dose-dependent manner, incubated for 72 hours, reacted with 15 μL of MTT reagent for 4 hours, and then 100 μL of 10% SDS was added thereto and incubated for 24 hours. […] MTT results were analyzed by measuring IC50 values through prism software.

[2] = tested on: Ba/F3 cell line expressing EGFR DEL19/T790M/C797S; assay: Inhibitory effect on cancer cell growth (MTT), Ba/F3 DEL19/T790M/C797S; format: cell-based, Murine; details: for IC50: read-out: DEL19/T790M/C797S (IC50); for inhibitory activity on C797S mutant EGFR-expressed cancer cell lines, comparison in words: both Ba/F3 triple mutant lines of Table 2
Experimental: as §1, §2, §3, §4, §5

[3] = target: MET kinase (Homo sapiens (Human), UniProt P08581); assay: Kinase inhibitory activity, MET; format: biochemical; details: 33P-ATP filter assay, about 40 minutes at room temperature
Experimental: The kinase inhibitory activity was measured by the following method:
The compound to be evaluated (DMSO solution) and Mg/ATP were added to proceed the reaction.
After about 40 minutes at room temperature, the reaction was stopped by the addition of 10 μL of 0.5% phosphoric acid.
10 μL of 0.5% reaction solution was spotted onto a P30 filtermat.
Washed 4 times for about 4 minutes in 0.425% phosphoric acid. Washed once in methanol, and then dried and analyzed by scintillation counting to measure IC50 value.

[4] = Mus musculus, BaF3, Ba/F3 stable cell line, MTT, 72 hours, GI50
[5] = Ba/F3 stable cell line, MTT, 72 hours, GI50

Chain of MET kinase (P08581 25-1390): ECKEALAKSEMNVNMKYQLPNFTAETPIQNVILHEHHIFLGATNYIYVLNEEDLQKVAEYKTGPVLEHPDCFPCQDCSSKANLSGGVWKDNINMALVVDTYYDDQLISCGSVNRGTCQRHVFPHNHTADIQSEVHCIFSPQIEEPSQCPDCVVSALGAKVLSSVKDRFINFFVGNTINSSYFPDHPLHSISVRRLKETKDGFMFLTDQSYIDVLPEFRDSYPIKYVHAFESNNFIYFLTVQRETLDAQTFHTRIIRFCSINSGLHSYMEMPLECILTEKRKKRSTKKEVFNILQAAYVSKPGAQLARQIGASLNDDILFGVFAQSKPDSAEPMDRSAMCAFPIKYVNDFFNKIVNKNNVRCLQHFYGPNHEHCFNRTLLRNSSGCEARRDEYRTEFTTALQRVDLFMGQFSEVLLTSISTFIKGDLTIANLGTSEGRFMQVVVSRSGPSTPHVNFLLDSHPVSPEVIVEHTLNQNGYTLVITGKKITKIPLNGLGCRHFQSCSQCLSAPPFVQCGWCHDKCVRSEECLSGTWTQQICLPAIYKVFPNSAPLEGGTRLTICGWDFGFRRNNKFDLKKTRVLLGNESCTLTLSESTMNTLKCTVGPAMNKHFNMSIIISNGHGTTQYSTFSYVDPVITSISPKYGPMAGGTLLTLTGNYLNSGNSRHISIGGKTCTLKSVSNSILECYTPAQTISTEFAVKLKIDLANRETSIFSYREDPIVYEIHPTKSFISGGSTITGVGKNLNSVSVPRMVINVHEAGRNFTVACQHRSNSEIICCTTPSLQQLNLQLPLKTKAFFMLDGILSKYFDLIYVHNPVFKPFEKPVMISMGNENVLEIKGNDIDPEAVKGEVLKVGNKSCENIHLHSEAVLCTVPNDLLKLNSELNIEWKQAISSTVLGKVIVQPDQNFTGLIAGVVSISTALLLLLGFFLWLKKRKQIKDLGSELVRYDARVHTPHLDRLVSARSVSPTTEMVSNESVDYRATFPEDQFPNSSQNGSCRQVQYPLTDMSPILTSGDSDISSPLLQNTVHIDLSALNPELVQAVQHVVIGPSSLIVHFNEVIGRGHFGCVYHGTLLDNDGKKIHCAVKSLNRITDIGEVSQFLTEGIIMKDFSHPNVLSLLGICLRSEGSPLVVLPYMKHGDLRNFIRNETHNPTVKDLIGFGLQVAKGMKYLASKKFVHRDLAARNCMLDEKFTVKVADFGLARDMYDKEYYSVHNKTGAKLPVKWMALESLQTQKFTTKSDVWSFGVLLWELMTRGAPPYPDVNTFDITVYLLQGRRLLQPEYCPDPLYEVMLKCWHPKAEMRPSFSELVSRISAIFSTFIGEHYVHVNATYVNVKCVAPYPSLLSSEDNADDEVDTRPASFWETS

SMILES	IC50 [1, 4] [nM]	IC50 [2, 4] [nM]	IC50 [3] [nM]	IC50 ([1]; Mus musculus, BaF3, 72 h) [nM]	IC50 ([2]; Mus musculus, BaF3, 72 h) [nM]	inhibitory activity on C797S mutant EGFR-expressed cancer cell lines, comparison in words [2]	IC50 [1, 5] [nM]	IC50 [2, 5] [nM]
COc1cc(N2CCC(N(C)C)CC2)ccc1Nc1ncc(Cl)c(Nc2ccccc2N(C)S(C)(=O)=O)n1 [Example 3, N-(2-((5-chloro-2-((4-(4-(dimethylamino)piperidin-1-yl)-2-methoxyphenyl)amino)pyrimidin-4-yl)amino)phenyl)-N-methylmethanesulfonamide]	531	323						
COc1cc(N2CCC(N3CCN(C)CC3)CC2)ccc1Nc1ncc(Cl)c(Nc2cc(F)ccc2N(C)S(C)(=O)=O)n1 [Example 2, N-(2-((5-chloro-2-((2-methoxy-4-(4-(4-methylpiperazin-1-yl)piperidin-1-yl)phenyl)amino)pyrimidin-4-yl)amino)-4-fluorophenyl)-N-methylmethanesulfonamide]	533	222						
COc1cc(N2CCC(N3CCN(C)CC3)CC2)ccc1Nc1ncc(Cl)c(Nc2ccccc2N(C)S(C)(=O)=O)n1 [Example 1, N-(2-((5-chloro-2-((2-methoxy-4-(4-(4-methylpiperazin-1-yl)piperidin-1-yl)phenyl)amino)pyrimidin-4-yl)amino)phenyl)-N-methylmethanesulfonamide]	160	210	1					
COc1cc(N2CCC(N3CCN(C)CC3)CC2)ccc1Nc1ncc(Cl)c(Nc2ccccc2P(C)(C)=O)n1 [Brigatinib]			70	860	560	very less active		
COc1cc(C2CCNCC2)ccc1Nc1ncc(Cl)c(Nc2ccccc2NS(C)(=O)=O)n1 [TRE-069]			120			very less active	4000	5000
